Active and inactive are the calls of the source. How the calls were made is not given here.
Tested on: CCRIS mutagenicity, Ames/micronucleus/aberration tests
Experiment: CCRIS mutagenicity studies

Measured: mutagenic call

NCCNCCN
inactive: Test System: AMES SALMONELLA TYPHIMURIUM, Strain/Indicator: TA98, Metabolic Activation: HAMSTER, LIVER, S-9, AROCLOR 1254 (10%), Method: PREINCUBATION inactive; negative | Test System: AMES SALMONELLA TYPHIMURIUM, Strain/Indicator: TA98, Metabolic Activation: NONE, Method: PREINCUBATION inactive; negative | Test System: AMES SALMONELLA TYPHIMURIUM, Strain/Indicator: TA98, Metabolic Activation: NONE, Method: STANDARD PLATE inactive; negative | Test System: AMES SALMONELLA TYPHIMURIUM, Strain/Indicator: TA98, Metabolic Activation: RAT LIVER S-9, PHENOBARBITAL AND BETA-NAPHTHOFLAVONE, Method: PREINCUBATION inactive; negative | Test System: AMES SALMONELLA TYPHIMURIUM, Strain/Indicator: TA98, Metabolic Activation: RAT, LIVER, S-9, AROCLOR 1254 (10%), Method: PREINCUBATION inactive; negative | Test System: AMES SALMONELLA TYPHIMURIUM, Strain/Indicator: TA98, Metabolic Activation: RAT, LIVER, S-9, AROCLOR 1254, Method: STANDARD PLATE inactive; negative | Test System: AMES SALMONELLA TYPHIMURIUM, Strain/Indicator: TA98, Metabolic Activation: RAT, LIVER, S-9, PCB, Method: PREINCUBATION inactive; negative | Test System: AMES SALMONELLA TYPHIMURIUM, Strain/Indicator: TA100, Metabolic Activation: HAMSTER, LIVER, S-9, AROCLOR 1254 (10%), Method: PREINCUBATION inactive; negative | Test System: AMES SALMONELLA TYPHIMURIUM, Strain/Indicator: TA100, Metabolic Activation: NONE, Method: PREINCUBATION inactive; negative | Test System: AMES SALMONELLA TYPHIMURIUM, Strain/Indicator: TA100, Metabolic Activation: NONE, Method: STANDARD PLATE inactive; negative | Test System: AMES SALMONELLA TYPHIMURIUM, Strain/Indicator: TA100, Metabolic Activation: RAT LIVER S-9, PHENOBARBITAL AND BETA-NAPHTHOFLAVONE, Method: PREINCUBATION inactive; negative | Test System: AMES SALMONELLA TYPHIMURIUM, Strain/Indicator: TA100, Metabolic Activation: RAT, LIVER, S-9, AROCLOR 1254 (10%), Method: PREINCUBATION inactive; negative | Test System: AMES SALMONELLA TYPHIMURIUM, Strain/Indicator: TA100, Metabolic Activation: RAT, LIVER, S-9, AROCLOR 1254, Method: STANDARD PLATE inactive; negative | Test System: AMES SALMONELLA TYPHIMURIUM, Strain/Indicator: TA100, Metabolic Activation: RAT, LIVER, S-9, PCB, Method: PREINCUBATION inactive; negative | Test System: AMES SALMONELLA TYPHIMURIUM, Strain/Indicator: TA1535, Metabolic Activation: HAMSTER, LIVER, S-9, AROCLOR 1254 (10%), Method: PREINCUBATION inactive; negative | Test System: AMES SALMONELLA TYPHIMURIUM, Strain/Indicator: TA1535, Metabolic Activation: NONE, Method: PREINCUBATION inactive; negative | Test System: AMES SALMONELLA TYPHIMURIUM, Strain/Indicator: TA1535, Metabolic Activation: NONE, Method: STANDARD PLATE inactive; negative | Test System: AMES SALMONELLA TYPHIMURIUM, Strain/Indicator: TA1535, Metabolic Activation: RAT LIVER S-9, PHENOBARBITAL AND BETA-NAPHTHOFLAVONE, Method: PREINCUBATION inactive; negative | Test System: AMES SALMONELLA TYPHIMURIUM, Strain/Indicator: TA1535, Metabolic Activation: RAT, LIVER, S-9, AROCLOR 1254 (10%), Method: PREINCUBATION inactive; negative | Test System: AMES SALMONELLA TYPHIMURIUM, Strain/Indicator: TA1535, Metabolic Activation: RAT, LIVER, S-9, AROCLOR 1254, Method: STANDARD PLATE inactive; negative | Test System: AMES SALMONELLA TYPHIMURIUM, Strain/Indicator: TA1537, Metabolic Activation: HAMSTER, LIVER, S-9, AROCLOR 1254 (10%), Method: PREINCUBATION inactive; negative | Test System: AMES SALMONELLA TYPHIMURIUM, Strain/Indicator: TA1537, Metabolic Activation: NONE, Method: PREINCUBATION inactive; negative | Test System: AMES SALMONELLA TYPHIMURIUM, Strain/Indicator: TA1537, Metabolic Activation: NONE, Method: STANDARD PLATE inactive; negative | Test System: AMES SALMONELLA TYPHIMURIUM, Strain/Indicator: TA1537, Metabolic Activation: RAT LIVER S-9, PHENOBARBITAL AND BETA-NAPHTHOFLAVONE, Method: PREINCUBATION inactive; negative | Test System: AMES SALMONELLA TYPHIMURIUM, Strain/Indicator: TA1537, Metabolic Activation: RAT, LIVER, S-9, AROCLOR 1254 (10%), Method: PREINCUBATION inactive; negative | Test System: AMES SALMONELLA TYPHIMURIUM, Strain/Indicator: TA1537, Metabolic Activation: RAT, LIVER, S-9, AROCLOR 1254, Method: STANDARD PLATE inactive; negative | Test System: AMES SALMONELLA TYPHIMURIUM, Strain/Indicator: TA1538, Metabolic Activation: NONE, Method: STANDARD PLATE inactive; negative | Test System: AMES SALMONELLA TYPHIMURIUM, Strain/Indicator: TA1538, Metabolic Activation: RAT, LIVER, S-9, AROCLOR 1254, Method: STANDARD PLATE inactive; negative | Test System: CHINESE HAMSTER OVARY, Strain/Indicator: CHO (HGPRT)/6-THIOGUANINE, Metabolic Activation: NONE inactive; negative | Test System: CHINESE HAMSTER OVARY, Strain/Indicator: CHO (HGPRT)/6-THIOGUANINE, Metabolic Activation: RAT, LIVER, S-9, AROCLOR 1254 inactive; negative | Test System: E.COLI, Strain/Indicator: WP2UVRA/PKM101, Metabolic Activation: NONE, Method: PREINCUBATION inactive; negative | Test System: E.COLI, Strain/Indicator: WP2UVRA/PKM101, Metabolic Activation: RAT LIVER S-9, PHENOBARBITAL AND BETA-NAPHTHOFLAVONE, Method: PREINCUBATION inactive; negative | Test System: UDS RAT HEPATOCYTES, Strain/Indicator: THY INCORP, Metabolic Activation: NONE, Method: SCINTILLATION SPECTROMETRY inactive; negative

Source: PubChem BioAssay AID1259407 (Chemical Carcinogenesis Research Information System (CCRIS), 2018)
